Experimental findings from US20050032904A1, “Composition and use of allylamine derivatives” (priority 2003, published 2005) are described below.

For test [1], the system named is COLO 205. Description: Determination of cell growth curve (cell counting). The format is cell-based, human. As for the experimental part: The effect of TB on the growth of various human cancer cells […]. In FIG. 1, (A) COLO205, (B) HT29, (C) HepG2, (D) Hep3B, (E) HL60, and (F) normal human fibroblast cells were treated with various concentrations of TB (30 to 120 μM). Media with or without TB were renewed daily until cell counting. Three samples were analyzed in each group. Values represent mean±S.E. The cells were cultured for 5 days with or without TB (30-120 μM), and then the cells were harvested and counted. […] The COLO 205 cells were released from quiescence by incubation in culture media supplemented with 10% FCS and 0.05% DMSO without or with 90 μM TB for 24 h. After 24 h treatment with TB, the cells were washed twice with PBS, replaced with fresh 10% FCS without DMSO or TB. […] The cultured cell numbers in DMSO- and TB-treated group were counted every day. Three samples were analyzed in each group, and values represent the mean±S.E. Human colon cancer, hepatoma, leukemia, and human normal fibroblast cells at a density of 1×10^4 were plated in 35-mm Petri dishes. TB was added at the indicated doses in 0.05% dimethyl-sulfoxide (DMSO). For control specimens, the same volume of the 0.05% DMSO without TB was added. Media with and without TB were changed daily until cell counting

Test [2] has as its system human gingival fibroblasts. Nature of the test: Determination of cell growth curve (cell counting). In kind it is cell-based. The conditions noted are these: 5 days. As for the experimental part:
The effect of TB on the growth of various human cancer cells wasexamined. In FIG. 1, (A) COLO205, (B) HT29, (C) HepG2, (D) Hep3B, (E) HL60, and (F) normal human fibroblast cells were treated with various concentrations of TB (30 to 120 μM). Media with or without TB were renewed daily until cell counting. Three samples were analyzed in each group. Values represent mean±S.E. The cells were cultured for 5 days with or without TB (30-120 μM), and then the cells were harvested and counted. […] However, when TB concentration was increased to 120 μM, a 50% growth inhibition was observed.
Human colon cancer, hepatoma, leukemia, and human normal fibroblast cells at a density of 1×10^4 were plated in 35-mm Petri dishes. TB was added at the indicated doses in 0.05% dimethyl-sulfoxide (DMSO). For control specimens, the same volume of the 0.05% DMSO without TB was added. Media with and without TB were changed daily until cell counting

The test system of test [3] is Hep 3B cells. Description: Flow cytometry (FACS) cell cycle analysis. In kind it is cell-based, human. The conditions noted are these: TB 10-150 μM, 15 h.
Test [4] relates to HL 60 cells. Description: Flow cytometry (FACS) cell cycle analysis. In kind it is cell-based, human. The conditions noted are these: TB 10-150 μM, 15 h.
Test [5] relates to cell cycle regulatory proteins in HL 60 cells. Nature of the test: Western blot of cell cycle regulatory proteins. The format is cell-based, human. Conditions: TB 60-150 μM, 15 h. As for the experimental part: (§1) To further test this hypothesis, the dose effects of TB on the levels of cell cycle regulatory protein were conducted in four different human cancer cell lines, COLO 205 (p53 wild type), HT 29 (p53 […] mutant), Hep 3B (p53 partial deleted) and HL 60 (p53 null). […] The cells were rendered quiescent for 24 h, and then challenged with 10% FCS and treated with various concentrations of TB (60-150 μM) for additional 15 h. Protein extracts (100 μg/lane) were separated by SDS-PAGE, probed with specific antibodies, and detected using the NBT/BCIP system. Membranes were also probed with anti-GAPDH antibody to correct for differences in protein loading. As previously described (Chen R J, et. al., Toxicology & Applied Pharmacology 2000;169(2):132-41.), the frozen tumor was pulverized in liquid N2, and then mixed with lysis buffer (Tris-HCl 0.5 M, pH 6.8, SDS 0.4%). For cell cultures, the cells were seeded onto 150-mm dishes and grown in RPMI 1640 (for COLO 205, HT 29 and HL 60 cells) or MEM (for Hep 3B) supplemented with 10% FCS. After the cells had grown to subconfluence, they were rendered quiescent. The cells were released from quiescence with culture medium supplemented with 10% FCS. TB in 0.05% DMSO or 0.05% DMSO without TB was added to the cells at various concentrations and the mixture was allowed to incubate for 17 h. Western blot analysis was performed as previously described (Chen R J, et. al., Toxicology & Applied Pharmacology 2000;169(2):132-41; Lee W S, et. al., Circulation Research 1998;82(8):845-51.). Immunodetection was carried by probing with proper dilutions of specific antibodies at room temperature for 2 h. Anti-p21/Cip1, anti-p27/Kip1, anti-p53, anti-GAPDH monoclonal antibodies (Santa Cruz, Inc. CA); anti-cyclin B1, D1, and D3, anti-cdk2 and cdk4, and PCNA monclonal antibodies (Transduction Laboratories, Lexington, Ky.) were used at a concentration of 1:1,000 dilution. Anti-cyclin A and E polyclonal antibodies (Transduction, San Diego, Calif.) were used at a concentration of 1:250 dilution. […] Sigma Chemical Co., St. Louis, Mo.). In each experiment, membranes were also probed with anti-GAPDH antibody to correct for differences in protein loading.

The test system of test [6] is cell cycle regulatory proteins in HT 29 cells. Description: Western blot of cell cycle regulatory proteins. In kind it is cell-based, human. Conditions: TB 60-150 μM, 15 h; dose-dependent. As for the experimental part:
as §1

Test [7] has as its system cell cycle regulatory proteins in Hep 3B cells. Nature of the test: Western blot of cell cycle regulatory proteins. In kind it is cell-based, human. The conditions noted are these: TB 60-150 μM, 15 h. The method, then:
as §1

Test [8] has as its system COLO 205 cells. Description: DNA fragmentation (DNA ladder) by electrophoresis of genomic DNA. The format is cell-based, human. As for the experimental part:
Genomic DNAs extracted from TB-treated COLO 205 were examined by gel electrophoresis. […] In FIG. 9, the part of (A) refers to potentiation of ND-induced apoptosis by TB. […] DNA fragmentation was examined at 24 h after drug treatment. In the lanes 2 and 8, cells received mock treatment as controls. The symbols of “M” (in lanes 1 and 7), refer to “DNA size marker.” (B) average tumor volume of DMSO-treated vs. drug-treated nude mice (n=5). (C) tumor weight, (D) animal body weight, and (E) tumor/body weight ratio were measured at the end of experiment. Five samples were analyzed in each group, and values represent the mean±S.E. Comparisons were subjected to ANOVA followed by Fisher's least significant difference test. Significance was accepted at p<0.05. *TB-, ND-, and TB+ND-treated group different from DMSO-treated group. TB+ND-treated group different from TB- or ND-treated group.

In the case of `CN(C/C=C/C#CC(C)(C)C)Cc1cccc2ccccc12` [TB, 1-Naphthalenemethanamine, N-(6,6-dimethyl-2-hepten-4-ynyl)-N-methyl-, (E)-], the “duration of inhibition of cell proliferation after removal of TB” value in test [1] (90 μM TB for 24 h, then removed) was “at least 7 days”. Moreover, the “reversibility of TB-induced inhibition of cell proliferation” value in test [1] (90 μM TB for 24 h, then washed and replaced with fresh 10% FCS) is reported as “not reversed by removal of TB”. In test [1] (TB 30-120 μM, 5 days, media renewed daily, dose-dependent), the cell number entry was “decreased cell number”. In addition, the “cell growth at TB 60 μM” value in test [1] (TB concentration increased to 60 μM, 5 days) is reported as “cell growth arrest or cell death”. In addition, in test [2] (Homo sapiens, Fibroblast, 120 h, TB 120 μM, medium changed daily, read-out: growth inhibition (reduction of cell count)), the inhibition at 120 µM is 50%. Further, in test [2] (TB 30-60 μM), the growth rate result is reported as “did not inhibit the growth rate”. Also, the “apoptosis (presence of sub G1)” value in test [3] and in test [4] was “dose-dependently caused the occurrence of apoptosis” in each case. Besides, the G0/G1 arrest entry in test [3] (p53 partial deleted cells) and in test [4] (p53 null cells) was “did not induce G0/G1 arrest” throughout. Moreover, the “levels of p53 and p21/Cip1 protein, dose effect” value in test [5] and in test [7] was “did not change” in each case. The “levels of p27/Kip1 protein, dose effect” value in test [5] (dose-dependent) and in test [7] (dose-dependent) was “significantly increased” throughout. Further, the “levels of cyclin D3 and cdk4, dose effect” value in test [6] is listed as “decreased”. Also, the “levels of p53, p21/Cip1 and p27/Kip1 protein, dose effect” value in test [6] is on record as “increased”. For the same molecule, in test [8] (10 μM TB alone, 24 h), the DNA ladder result is on record as “does not induce DNA ladder”. Also, the “effect of TB on ND-induced apoptosis” value in test [8] (co-treatment with TB 10 μM and ND) is “enhanced the ND-induced apoptosis”.
